The target of this assay is Alpha glucosidase (Homo sapiens, UniProt O43451+P10253+P14410+Q2M2H8). As to the kind of experiment: Inhibition of alpha-glucosidase (unknown origin) using p-nitrophenyl-alpha-d-glucopyranoside as substrate preincubated for 15 mins followed by substrate addition measured after 30 mins. In kind it is protein assay.
The compound `Cc1ccc(-c2csc(NC(=O)CSc3nnc(-c4ccc(Br)cc4)c(-c4ccc(Br)cc4)n3)n2)cc1` gave an IC50 of 2.8 to 14 µM.

For `Cc1ccc(-c2csc(NC(=O)CSc3nnc(-c4ccc(F)cc4)c(-c4ccc(F)cc4)n3)n2)cc1`, the IC50 was in the range of 2.8 to 14 µM.

Compound `O=c1ccc2ccc(OCC(O)CSc3nnc(-c4ccco4)c(-c4ccco4)n3)cc2o1` (stereo not drawn) came in with an IC50 of 32 to 148 µM.

In turn, `COc1cc(-c2ccc(F)cc2)ccc1O[C@H](C)Cn1cc(-c2ccc(C(F)(F)F)cc2)nn1` showed an IC50 of 14 to 218 µM.

Turning to `O=C1Nc2ccc(F)cc2/C1=N/Nc1nc(-c2ccc(F)cc2)cs1`, the IC50 was 5.3 to 35 µM.

Compound `O=C(CSc1nnc(-c2ccc(Br)cc2)c(-c2ccc(Br)cc2)n1)Nc1nc(-c2ccc(Br)cc2)cs1` registered an IC50 of 2.8 to 14 µM.

The compound `Cc1ccc(C(c2c[nH]c3ccc(C(=O)NNS(=O)(=O)c4cccc(Cl)c4Cl)cc23)c2c[nH]c3ccc(C(=O)NNS(=O)(=O)c4cccc(Cl)c4Cl)cc23)cc1` yielded an IC50 of 0.1 to 5.1 µM.

The compound `Cc1ccc2c(c1)/C(=N/Nc1nc(-c3ccc(O)cc3)cs1)C(=O)N2Cc1ccccc1F` returned a 50% inhibitory concentration (IC50) of 5.3 µM.

For the compound `Cc1ccc(C(c2c[nH]c3ccc(C(=O)NNS(=O)(=O)c4ccc([N+](=O)[O-])cc4[N+](=O)[O-])cc23)c2c[nH]c3ccc(C(=O)NNS(=O)(=O)c4ccc([N+](=O)[O-])cc4[N+](=O)[O-])cc23)cc1`, the IC50 was 0.5 µM.

`O=c1ccc2ccc(OCC(O)CSc3nnc(-c4ccc(F)cc4)c(-c4ccc(F)cc4)n3)cc2o1` (stereo not drawn) had an IC50 of 32 to 148 µM.

For `O=C1Nc2ccccc2/C1=N/Nc1nc(-c2ccc(Cl)cc2)cs1`, the IC50 was in the range of 5.3 to 35 µM.

`O=C(CSc1nnc(-c2ccccc2)c(-c2ccccc2)n1)Nc1nc(-c2ccc(F)cc2)cs1` displayed an IC50 of 2.8 to 14 µM.

In turn, `O=C1Nc2ccccc2C1(c1cn(Cc2ccccc2F)c2ccccc12)c1cn(Cc2ccccc2F)c2ccccc12` displayed an IC50 of 5.9 µM.

Compound `O=c1ccc2ccc(OCC(O)CSc3nnc(-c4ccccc4)c(-c4ccccc4)n3)cc2o1` (stereo not drawn) displayed an IC50 of 32 to 148 µM.

The compound `O=C(CSc1nnc(-c2ccc(F)cc2)c(-c2ccc(F)cc2)n1)Nc1nc(-c2ccc(Br)cc2)cs1` displayed an IC50 of 2.8 to 14 µM.

With `Cc1ccc2c(c1)C(c1c[nH]c3ccccc13)(c1c[nH]c3ccccc13)C(=O)N2`, the IC50 was in the range of 5.9 to 145 µM.

As for `Cc1ccc(-c2csc(N/N=C3\C(=O)N(Cc4ccccc4F)c4ccc(C)cc43)n2)cc1`, the IC50 is 5.3 to 35 µM.

Turning to `O=C(CSc1nnc(-c2ccc(Br)cc2)c(-c2ccc(Br)cc2)n1)Nc1nc(-c2ccc(F)cc2)cs1`, the half-inhibitory concentration (IC50) is 2.8 to 14 µM.

`Cc1ccc(C(c2c[nH]c3ccc(C(=O)NNS(=O)(=O)c4ccc(Cl)cc4Cl)cc23)c2c[nH]c3ccc(C(=O)NNS(=O)(=O)c4ccc(Cl)cc4Cl)cc23)cc1` gave an IC50 of 0.1 to 5.1 µM.

As to `COc1ccc(-c2csc(NC(=O)CSc3nnc(-c4ccccc4)c(-c4ccccc4)n3)n2)cc1`, the IC50 lay within 2.8 to 14 µM.

In the case of `O=C(CSc1nnc(-c2ccc(F)cc2)c(-c2ccc(F)cc2)n1)Nc1nc(-c2ccc(F)cc2)cs1`, the IC50 fell in the range of 2.8 to 14 µM.

Take `Cc1ccc(C(c2c[nH]c3ccc(C(=O)NNS(=O)(=O)c4ccc([N+](=O)[O-])cc4)cc23)c2c[nH]c3ccc(C(=O)NNS(=O)(=O)c4ccc([N+](=O)[O-])cc4)cc23)cc1`: the IC50 amounted to 2.1 µM.

Turning to `CC(C)Cn1cc(C2(c3cn(CC(C)C)c4ccccc34)C(=O)Nc3ccccc32)c2ccccc21`, the IC50 lay in the range of 5.9 to 145 µM.

The compound `O=C1Nc2ccccc2C1(c1cn(Cc2ccccc2)c2ccccc12)c1cn(Cc2ccccc2)c2ccccc12` displayed an IC50 of 5.9 to 145 µM.

`CCCCn1cc(C2(c3cn(CCCC)c4ccccc34)C(=O)Nc3ccccc32)c2ccccc21` registered an IC50 of 5.9 to 145 µM.

Compound `O=C(CSc1nnc(-c2ccc(Br)cc2)c(-c2ccc(Br)cc2)n1)Nc1nc(-c2ccc(Cl)cc2)cs1` returned a half-inhibitory concentration (IC50) of 2.8 to 14 µM.

In turn, `O=c1oc2ccccc2cc1OCC(O)CSc1nnc(-c2cccc(Br)c2)c(-c2cccc(Br)c2)n1` (stereo not drawn) returned an IC50 of 32 µM.

The compound `Cn1cc(C2(c3cn(C)c4ccccc34)C(=O)Nc3ccccc32)c2ccccc21` came in with an IC50 of 5.9 to 145 µM.

Compound `O=C(CSc1nnc(-c2ccc(Br)cc2)c(-c2ccc(Br)cc2)n1)Nc1nc(-c2ccccc2)cs1` yielded a half-maximal inhibitory concentration (IC50) of 2.8 to 14 µM.

As for `O=C(CSc1nnc(-c2ccc(F)cc2)c(-c2ccc(F)cc2)n1)Nc1nc(-c2ccccc2)cs1`, the IC50 lay within 2.8 to 14 µM.

For the compound `COc1ccc(-c2csc(N/N=C3\C(=O)N(Cc4ccccc4F)c4ccc(C)cc43)n2)cc1`, the IC50 lay in the range of 5.3 to 35 µM.

In turn, `Cc1ccc(C(c2c[nH]c3ccc(C(=O)NNS(=O)(=O)c4ccccc4[N+](=O)[O-])cc23)c2c[nH]c3ccc(C(=O)NNS(=O)(=O)c4ccccc4[N+](=O)[O-])cc23)cc1` registered an IC50 of 2.1 µM.

Compound `O=C1Nc2ccccc2C1(c1cn(Cc2cccc(F)c2)c2ccccc12)c1cn(Cc2cccc(F)c2)c2ccccc12` returned an IC50 of 5.9 to 145 µM.

`Cc1cc(C)c2c(c1)/C(=N/Nc1nc(-c3ccc(Br)cc3)cs1)C(=O)N2`: the IC50 is 5.3 to 35 µM.

As to `O=C1Nc2ccccc2C1(c1cn(Cc2ccc(Br)cc2)c2ccccc12)c1cn(Cc2ccc(Br)cc2)c2ccccc12`, the IC50 was in the range of 5.9 to 145 µM.

`O=C1Nc2ccccc2C1(c1c[nH]c2ccccc12)c1c[nH]c2ccccc12`: the IC50 lay within 5.9 to 145 µM.

Consider `COc1cc(Br)ccc1O[C@H](C)Cn1cc(-c2ccccc2)nn1`, for which the 50% inhibitory concentration (IC50) is 14 to 218 µM.

`COc1cc(-c2ccc([N+](=O)[O-])cc2)ccc1O[C@H](C)Cn1cc(-c2ccc(C(F)(F)F)cc2)nn1` had an IC50 of 14 to 218 µM.

In the case of `Cc1ccc(-c2csc(N/N=C3\C(=O)Nc4c(C)cc(C)cc43)n2)cc1`, the IC50 fell in the range of 5.3 to 35 µM.

`O=C(CSc1nnc(-c2ccccc2)c(-c2ccccc2)n1)Nc1nc(-c2ccc(Cl)cc2)cs1` returned an IC50 of 2.8 to 14 µM.

`Cc1ccc(C(c2c[nH]c3ccc(C(=O)NNS(=O)(=O)c4ccccc4Cl)cc23)c2c[nH]c3ccc(C(=O)NNS(=O)(=O)c4ccccc4Cl)cc23)cc1` came in with an IC50 of 0.1 to 5.1 µM.

Turning to `Cc1ccc(-c2csc(N/N=C3\C(=O)Nc4ccccc43)n2)cc1`, the IC50 was in the range of 5.3 to 35 µM.

With `Cc1cc(C)c2c(c1)/C(=N/Nc1nc(-c3ccc(F)cc3)cs1)C(=O)N2`, the IC50 lay within 5.3 to 35 µM.

`COc1cc(Br)ccc1O[C@H](C)Cn1cc(-c2ccc(F)cc2)nn1` gave an IC50 of 14 to 218 µM.

`O=C(CSc1nnc(-c2ccccc2)c(-c2ccccc2)n1)Nc1nc(-c2ccccc2)cs1` yielded an IC50 of 2.8 to 14 µM.

`O=c1oc2ccccc2cc1OCC(O)CSc1nnc(-c2ccco2)c(-c2ccco2)n1` (stereo not drawn): the IC50 lay in the range of 32 to 148 µM.

Compound `COC(=O)c1cn(C[C@@H](C)Oc2ccc(Br)cc2OC)nn1` showed an IC50 of 14 to 218 µM.

Regarding `Cc1ccc2c(c1)/C(=N/Nc1nc(-c3ccc(O)cc3)cs1)C(=O)N2`, the IC50 lay in the range of 5.3 to 35 µM.

For the compound `Cc1ccc(C(c2c[nH]c3ccc(C(=O)NNS(=O)(=O)c4ccc(Br)cc4)cc23)c2c[nH]c3ccc(C(=O)NNS(=O)(=O)c4ccc(Br)cc4)cc23)cc1`, the concentration for half-maximal inhibition (IC50) was 0.1 to 5.1 µM.

On to `CN1C(=O)/C(=N\Nc2nc(-c3ccc(F)cc3)cs2)c2ccccc21`, for which the IC50 was 5.3 to 35 µM.

In turn, `COc1cc(-c2ccc(C)cc2)ccc1O[C@H](C)Cn1cc(-c2ccc(C(F)(F)F)cc2)nn1` had a half-inhibitory concentration (IC50) of 14 to 218 µM.

`O=C1Nc2ccc(Cl)cc2/C1=N/Nc1nc(-c2ccc(Br)cc2)cs1` showed an IC50 of 5.3 to 35 µM.

`Cc1ccc(-c2csc(N/N=C3\C(=O)Nc4ccc(F)cc43)n2)cc1`: the half-inhibitory concentration (IC50) fell in the range of 5.3 to 35 µM.

As for `Cc1ccc(C(c2c[nH]c3ccc(C(=O)NNS(=O)(=O)c4cc(Cl)ccc4Cl)cc23)c2c[nH]c3ccc(C(=O)NNS(=O)(=O)c4cc(Cl)ccc4Cl)cc23)cc1`, the IC50 was 0.1 to 5.1 µM.

For `Cc1ccc(C(c2c[nH]c3ccc(C(=O)NNS(=O)(=O)c4cc(Cl)c(Cl)cc4Cl)cc23)c2c[nH]c3ccc(C(=O)NNS(=O)(=O)c4cc(Cl)c(Cl)cc4Cl)cc23)cc1`, the IC50 lay in the range of 0.3 to 2.5 µM.

As for `COc1ccc(-c2ccc(O[C@H](C)Cn3cc(-c4ccc(C(F)(F)F)cc4)nn3)c(OC)c2)cc1`, the IC50 was 14 µM.

For `Cc1ccc(-c2csc(N/N=C3\C(=O)N(C)c4ccccc43)n2)cc1`, the IC50 fell in the range of 5.3 to 35 µM.

`O=c1oc2ccccc2cc1OCC(O)CSc1nnc(-c2ccc(F)cc2)c(-c2ccc(F)cc2)n1` (stereo not drawn) yielded an IC50 of 32 to 148 µM.

For the compound `COc1cc(Br)ccc1O[C@H](C)Cn1cc(-c2ccc(C(F)(F)F)cc2)nn1`, the IC50 fell in the range of 14 to 218 µM.

`CCCn1cc(C2(c3cn(CCC)c4ccccc34)C(=O)Nc3ccccc32)c2ccccc21` gave an IC50 of 5.9 to 145 µM.

Take `COc1ccc(-c2csc(N/N=C3\C(=O)N(C)c4ccccc43)n2)cc1`: the IC50 was 5.3 to 35 µM.

`O=c1ccc2ccc(OCC(O)CSc3nnc(-c4cccc(F)c4)c(-c4cccc(F)c4)n3)cc2o1` (stereo not drawn) had an IC50 of 32 to 148 µM.

In turn, `Cc1ccc(C(c2c[nH]c3ccc(C(=O)NNS(=O)(=O)c4ccccc4Br)cc23)c2c[nH]c3ccc(C(=O)NNS(=O)(=O)c4ccccc4Br)cc23)cc1` yielded a half-maximal inhibitory concentration (IC50) of 0.1 to 5.1 µM.

`Cc1ccc(C(c2c[nH]c3ccc(C(=O)NNS(=O)(=O)c4cccc([N+](=O)[O-])c4)cc23)c2c[nH]c3ccc(C(=O)NNS(=O)(=O)c4cccc([N+](=O)[O-])c4)cc23)cc1` yielded a half-inhibitory concentration (IC50) of 2.1 µM.

`CC(C)n1cc(C2(c3cn(C(C)C)c4ccccc34)C(=O)Nc3ccccc32)c2ccccc21` showed an IC50 of 5.9 to 145 µM.

`O=C1Nc2ccccc2/C1=N/Nc1nc(-c2ccc(F)cc2)cs1`: the concentration for half-maximal inhibition (IC50) fell in the range of 5.3 to 35 µM.

The compound `Cc1ccc(C(c2c[nH]c3ccc(C(=O)NNS(=O)(=O)c4ccc(C)cc4)cc23)c2c[nH]c3ccc(C(=O)NNS(=O)(=O)c4ccc(C)cc4)cc23)cc1` yielded an IC50 of 0.1 to 5.1 µM.

In turn, `O=C(CSc1nnc(-c2ccc(F)cc2)c(-c2ccc(F)cc2)n1)Nc1nc(-c2ccc(Cl)cc2)cs1` showed a concentration for half-maximal inhibition (IC50) of 2.8 to 14 µM.

`Cc1ccc(C(c2c[nH]c3ccc(C(=O)NNS(=O)(=O)c4cc(Cl)cc(Cl)c4)cc23)c2c[nH]c3ccc(C(=O)NNS(=O)(=O)c4cc(Cl)cc(Cl)c4)cc23)cc1` came in with an IC50 of 0.1 to 5.1 µM.

For `O=C1Nc2ccccc2C1(c1cn(Cc2ccccc2Cl)c2ccccc12)c1cn(Cc2ccccc2Cl)c2ccccc12`, the IC50 lay within 5.9 to 145 µM.

For `Cc1ccc(-c2csc(NC(=O)CSc3nnc(-c4ccccc4)c(-c4ccccc4)n3)n2)cc1`, the 50% inhibitory concentration (IC50) lay in the range of 2.8 to 14 µM.

In the case of `O=C1Nc2ccc(Br)cc2C1(c1c[nH]c2ccccc12)c1c[nH]c2ccccc12`, the IC50 fell in the range of 5.9 to 145 µM.

`O=C(CSc1nnc(-c2ccccc2)c(-c2ccccc2)n1)Nc1nc(-c2ccc(Br)cc2)cs1` came in with an IC50 of 2.8 to 14 µM.

These data come from ChEMBL document CHEMBL4304757, “Synthetic heterocyclic candidates as promising α-glucosidase inhibitors: An overview” (Eur J Med Chem, 2019).
